Results taken from paper PMC4640066 (Nature Communications, 2015).

Key:
[1] = system: DMSO-stimulated, γ-tubulin-independent aster formation; assay: DMSO-stimulated aster formation in M-phase Xenopus egg extracts; format: biochemical; conditions: M-phase-arrested Xenopus egg extracts, 5% DMSO, 20 min at 20 °C
Protocol: Cytostatic factor (CSF)-arrested M phase Xenopus egg extracts (CSF extracts) were prepared. Briefly, unfertilized eggs were crushed by 10,700g centrifugation for 20 min. M phase extracts were mixed with 0.5 μM Cy3-labelled α/β-tubulin and various concentrations of compounds. After incubation for 30 min on ice, 15 μM RanQ69L, 200 sperm nuclei per μl or 5% DMSO were added and incubated for 30 min on ice. After incubation for 20 min at 20 °C (for the samples with sperm nuclei, the incubation time was 30 min), 1.5 μl sample was fixed with 1.5 μl fix solution (0.3 volume of 37% formaldehyde, 0.6 volume of 80% glycerol and 0.1 vol of 10 × MMR solution (50 mM HEPES, pH 7.8, 1 M NaCl, 20 mM KCl, 10 mM MgCl2, 20 mM CaCl2 and 1 mM EDTA)), followed by the squash fix.
Images were acquired using a microscope (Axiovert 200 M; Carl Zeiss Inc.) equipped with a plan-Apochromat × 63 NA 1.3 oil objective lens (Carl Zeiss Inc.), a Cy3 emission filter and a Cascade:1 K (Photometrics Inc.) camera, and the AxioVision software (Carl Zeiss Inc.). The aster size and fluorescence intensity were quantified using a macro written in MATLAB[41].

human γ-tubulin = biological target: T1, human γ-tubulin (Homo sapiens, UniProt P23258); assay: Tryptophan-based drug-binding assay, γ-tubulin; conditions: for Ratio of Kd[α/β-tubulin]/Kd[γ-tubulin]: selectivity for γ-tubulin over α/β-tubulin
T1 construct: myc (C); 6His (C); made in house; host or cells: Sf21 insect cells (baculovirus)
T1 sequence (P23258 whole entry): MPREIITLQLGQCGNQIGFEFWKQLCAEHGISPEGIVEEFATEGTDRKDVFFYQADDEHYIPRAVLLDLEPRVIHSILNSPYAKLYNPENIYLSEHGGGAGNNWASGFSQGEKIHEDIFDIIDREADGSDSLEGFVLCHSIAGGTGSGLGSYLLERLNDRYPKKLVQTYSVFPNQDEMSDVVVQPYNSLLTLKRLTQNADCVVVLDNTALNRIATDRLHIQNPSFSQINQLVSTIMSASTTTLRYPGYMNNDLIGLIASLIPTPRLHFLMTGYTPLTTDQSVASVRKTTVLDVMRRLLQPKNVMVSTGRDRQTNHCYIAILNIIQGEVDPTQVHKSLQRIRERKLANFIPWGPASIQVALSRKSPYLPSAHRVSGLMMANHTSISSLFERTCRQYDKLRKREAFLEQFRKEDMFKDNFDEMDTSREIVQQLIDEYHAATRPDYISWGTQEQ
Protocol: In brief, 0.7 × 10^6 cells ml^−1 were infected with the γ-tubulin baculovirus. After 48 h, cells were collected by centrifugation at […] for 10 min and flash-frozen in liquid nitrogen and stored at −80 °C. Purification was carried out as described with slight modifications. […] Imidazole (final 10 mM) was added and the lysate was centrifuged again at 192,800g for 30 min at 4 °C. […] Ni-NTA Agarose was then washed twice with wash buffer 1 (lysis buffer containing 25 mM imidazole) and wash buffer 2 (50 mM MES pH 6.6, 500 mM KCl, 5 mM MgCl2, 10% glycerol, 10 μM GTP and 1 mM DTT) containing 25 mM imidazole. γ-Tubulin was eluted with wash buffer 2 containing 200 mM imidazole.
Monomeric γ-tubulin was prepared using a size exclusion column HiLoad 16/60 Superdex 200 pre-equilibrated with gel filtration buffer (50 mM MES pH 6.6, 500 mM KCl, 5 mM MgCl2, 1 mM EGTA, 10 μM GTP and 1 mM DTT). The peak fractions representing monomeric γ-tubulin were identified by A280 and confirmed using SDS–PAGE. Protein was concentrated using a Vivaspin concentrator (Sartorius) and supplemented with 10% glycerol, following snap-freezing in liquid nitrogen and storage at −80 °C.
Gel filtration buffer for γ-tubulin purification (50 mM MES pH 6.6, 500 mM KCl, 5 mM MgCl2, 1 mM EGTA and 1 mM DTT) supplemented with 10% of glycerol was used as an assay buffer. γ-tubulin and α/β-tubulin were diluted in this assay buffer to reach a final protein concentration of 1 μM. A final concentration of 10 μM or 1 mM GTP was added to the samples. Proteins were incubated for 30 min with compounds (final DMSO concentration was 1%; 2% for AG1 and gatastatin). […] Dissociation constants were calculated from fitting curves of decreasing fluorescence (ΔFL) using the GraphPad Prizm software.

SMILES: COc1cc2c(=O)c(-c3cc(OC)c4c(c3OC)OCO4)coc2cc1OCc1ccccc1 [Gatastatin, O^7-demethylbenzyl AG1]
- IC50 [1]: > 100 µM
- Ratio of Kd[α/β-tubulin]/Kd[γ-tubulin] (human γ-tubulin): 11.81
- Ratio of Kd[α/β-tubulin]/Kd[γ-tubulin] (human γ-tubulin; listed as gatastatin): 12
- Kd (human γ-tubulin; tryptophan fluorescence decrease, 1 μM protein, mean±s.d., three independent experiments): 3.6 ± 1.3 µM
